The values below come from patent US9290535B2, “Uridine-based gadolinium complex and MRI contrast agent including the same” (Korea University Researchand Business Foundation, priority 2011, dated 2016).

“And” between values parts separate entries of the source, which are not always exact repeats. Identical values can stand only once.

For data set [1] the following is noted: clinical liver-specific contrast agents; cited from earlier work.
A short description of data set [2]: Relaxivity measurements (r1, r2) in PBS solution. It counts as physicochemical. The conditions noted are these: PBS solution, 36° C.
Description: Longitudinal and transverse relaxivities, r1 and r2, were measured at 20 MHz (0.47 T) and 60 MHz (1.41 T) at 36° C. on NMR (mq20 and mq60, Bruker, Germany) and animal MRI (Biospec 47/40, Bruker, Germany) systems. T1 and T2 relaxation times were measured with inversion recovery and spin-echo pulse sequences, respectively.
The relaxation efficiency of the newly synthesized amphiphilic MRI contrast agents according to the present invention was determined by measuring longitudinal relaxivity (r1) and transverse relaxivity (r2) at 20 MHZ (0.47 T) and 60 MHz (1.41 T) in phosphate buffered saline (PBS) solution at 36° C.
Data set [3] has as its target T1, human serum albumin (HSA) (Homo sapiens, UniProt P02768).
T1 construct: purchased Sigma (Bornem, Belgium) A3782
Description: Interaction with human serum albumin (relaxivity with HSA, binding constant). The note with it: 36° C.; for Relaxivity r1^a (with HSA): 20 MHz (0.47 T), PBS solution with 0.65 mM HSA. The text has this: It is well known that non-covalent interaction of the contrast agent with human serum albumin (HSA) increases its circulation time in blood and slows down tubling rate, leading to greater contrast enhancement for blood vessel imaging. In this example, effective interaction between the newly synthesized contrast agents (CAs) and human serum albumin (HSA) were investigated.
Human serum albumin (HSA; Product No. A3782) was purchased from Sigma (Bornem, Belgium) and was used without further purification. HSA binding experiment was performed with 50 μM of the complexes LGd1-5 in PBS solution depending on the concentration of HSA from 0 to 4 mM at 20 MHz and 36° C.
The increment of R1/R1^0 with increasing aliphatic chain length is: LGd2>LGd3>LGd4>LGd5.
Furthermore, to know the non-covalent binding strength between HSA and the complex, a binding constant (Ka) of (3.34±0.28)×10^3 M^−1 for the complex LGd3 was determined using the theoretical equation reported in the reference (D. T. Schuhle, J. Schatz, S. Laurent, L. V. Elst, R. N. Muller, M. C. A. Stuart, J. A. Peters, Chem. Eur. J. 2009, 15, 3290). The relaxivity for the non-aggregate form of LGd3 (r1^f) was measured to be 18.5 mM^−1s^−1 (below CMC=50 μM; FIG. 10), while for adduct LGd3.HSA (r1^c), 41.0 mM^−1s^−1 at 36° C. and 20 MHz (0.47 T) in PBS solution. […] As a result, the complex LGd3 of the present invention could be retained in vivo for a longer time.

The nature of data set [4]: Dynamic light scattering (DLS) of micelles. It counts as physicochemical. The note with it: FIGS. 6 to 9; for DLS average size of micelles: pH 7.4.
Data set [5] can be described thus: Stability against transmetallation by Zn2+ (time evolution of proton relaxation rate). It counts as physicochemical. The conditions noted are these: for Relaxivity retained after transmetallation: 2.5 mM complex with 2.5 mM ZnCl2 in PBS, after 70 h; for y0 of fit y0+A×exp(−t/C1) of proton relaxation rate during transmetallation: Zn(II) ions, PBS, 20 MHz (0.47 T), 36° C., steady state in about 70 h. The method, then:
The stability of the gadolinium complex against various biologically active metal ions is very important in in vivo applications. Among them, only Zn^2+ can displace significant amounts of the Gd^3+ ion as concentration of Zn^2+ in blood is relatively high (55-125 μM/L). The stability of the complexes LGd1-4 against transmetallation by Zn^2+ was studied employing the method of others.
The time evolution of the ^1H longitudinal relaxivity (R1) of a 2.5 mM gadolinium complex with 2.5 mM ZnCl2 in PBS solution was measured. Stability of the amphiphilic complex LGd2 of the present invention was greater than that of the non-aggregated complex LGd1 (FIG. 13). After 70 h, the relaxivities were retained 30, 50, 21, and 12% for LGd1-4, respectively.

Data set [6] in a line: pH dependence of water 1H relaxivity. The note with it: 36° C. It counts as physicochemical. On the procedure:
The relaxivities of the non-aggregated complex LGd1 and the most aggregated complex LGd3 (FIG. 7, average diameter […]) were investigated at various pH values (3.5-11) at 60 MHz (1.41 T) and 36° C.
The pH dependence of water ^1H-NMR relaxivity r1 was obtained at 60 MHz and 36° C. The complexes LGd1 and LGd3 were dissolved in previously prepared stock solutions (StockOptions pH Screen, Hampton Research, USA) at pH 3.5-11.

T1 sequence (P02768 25-609): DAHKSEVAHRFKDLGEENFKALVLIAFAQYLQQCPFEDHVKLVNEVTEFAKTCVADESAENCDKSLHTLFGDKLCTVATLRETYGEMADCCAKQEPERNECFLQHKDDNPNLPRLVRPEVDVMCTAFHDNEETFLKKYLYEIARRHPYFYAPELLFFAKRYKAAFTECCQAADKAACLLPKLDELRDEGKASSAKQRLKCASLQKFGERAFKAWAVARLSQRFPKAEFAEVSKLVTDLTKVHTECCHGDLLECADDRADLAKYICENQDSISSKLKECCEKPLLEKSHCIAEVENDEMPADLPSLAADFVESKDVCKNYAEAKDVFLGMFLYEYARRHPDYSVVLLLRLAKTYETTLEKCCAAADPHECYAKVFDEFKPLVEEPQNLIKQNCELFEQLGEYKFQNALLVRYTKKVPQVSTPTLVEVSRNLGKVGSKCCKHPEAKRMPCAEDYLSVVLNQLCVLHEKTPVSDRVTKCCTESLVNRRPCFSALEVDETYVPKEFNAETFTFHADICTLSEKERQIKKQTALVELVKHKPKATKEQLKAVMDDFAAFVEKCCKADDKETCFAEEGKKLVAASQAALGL

Take `CCOc1ccc(CC(CN(CCN(CC(=O)[O-])CC(=O)[O-])CC(=O)[O-])N(CC(=O)[O-])CC(=O)[O-])cc1.[Gd+3].[Na+].[Na+]` (stereo not drawn) [Primovist®, Gd-EOB-DTPA]: in data set [1], the Hepatic excretion is recorded as 50% and the Renal excretion is listed as 50%.

Take `O=C([O-])CN(CCN(CC(=O)[O-])CC(COP(=O)([O-])OC1CCC(c2ccccc2)(c2ccccc2)CC1)N(CC(=O)[O-])CC(=O)[O-])CC(=O)[O-].[Gd+3].[Na+].[Na+].[Na+]` (stereo not drawn) [Vasovist®, diphenylcyclohexyl phosphodiester-Gd-DTPA]: in data set [1], the Hepatic excretion was 8% and the Renal excretion is given as 91%.

Consider `CCCCCCCCCCCCCC(=O)O[C@@H]1[C@H](OC(=O)CCCCCCCCCCCCC)[C@@H](CN(CCN(CC(=O)[O-])CC(=O)[O-])CCN(CC(=O)[O-])CC(=O)[O-])O[C@H]1n1ccc(=O)[nH]c1=O.[Gd+3]` [LGd5], for which the “Relaxivity r1” value in data set [2] (20 MHz (0.47 T)) was determined as 20.10 mM⁻¹ s⁻¹. In addition, in data set [2] (60 MHz (1.41 T)), the “Relaxivity r1” value came out at 17.20 mM⁻¹ s⁻¹. In addition, the “Relaxivity r1^a (with HSA)” value in data set [3] is 26.40 mM⁻¹ s⁻¹. In data set [4], the “DLS PDI of micelles” value is 1.14 and the “DLS average size of micelles” value turned out to be 24.74 nm.

As to `CNC[C@H](O)[C@@H](O)[C@H](O)[C@H](O)CO.CNC[C@H](O)[C@@H](O)[C@H](O)[C@H](O)CO.O=C([O-])CN(CCN(CC(=O)[O-])CC(=O)O)CCN(CC(=O)O)C(COCc1ccccc1)C(=O)[O-].[Gd+3]` (stereo not drawn) [Multihance®, Gd-BOPTA], in data set [1], the Hepatic excretion is 4% and the Renal excretion is 96%.

As to `CCCCCCCCCCCC(=O)O[C@@H]1[C@H](OC(=O)CCCCCCCCCCC)[C@@H](CN(CCN(CC(=O)[O-])CC(=O)[O-])CCN(CC(=O)[O-])CC(=O)[O-])O[C@H]1n1ccc(=O)[nH]c1=O.[Gd+3]` [LGd4], the “Relaxivity r1” value in data set [2] (20 MHz (0.47 T)) turned out to be 27.10 mM⁻¹ s⁻¹. Besides, the “Relaxivity r1” value in data set [2] (60 MHz (1.41 T)) turned out to be 16.50 mM⁻¹ s⁻¹. In data set [3], the “Relaxivity r1^a (with HSA)” value was 38.50 mM⁻¹ s⁻¹. In data set [4], the “DLS PDI of micelles” value came out at 1.12 and the “DLS average size of micelles” value amounted to 50.16 nm. For the same compound, in data set [5], the “Relaxivity retained after transmetallation” value (from here on “Relaxivity retained”) is reported as 12% and the “y0 of fit y0+A×exp(−t/C1) of proton relaxation rate during transmetallation” value is recorded as 0.12.

For `CCCCCCCC(=O)O[C@@H]1[C@H](OC(=O)CCCCCCC)[C@@H](CN(CCN(CC(=O)[O-])CC(=O)[O-])CCN(CC(=O)[O-])CC(=O)[O-])O[C@H]1n1ccc(=O)[nH]c1=O.[Gd+3]` [LGd2], in data set [2] (20 MHz (0.47 T)), the “Relaxivity r1” value came out at 14.70 mM⁻¹ s⁻¹. The “Relaxivity r1” value in data set [2] (60 MHz (1.41 T)) came to 12.40 mM⁻¹ s⁻¹. Also, the “Effective interaction with HSA (R1/R1^0)” value in data set [3] (50 μM complex, HSA below 1.0 mM, 20 MHz) is listed as “high”. The “Relaxivity r1^a (with HSA)” value in data set [3] was determined as 31.90 mM⁻¹ s⁻¹. In data set [4], the “DLS PDI of micelles” value was 0.986 and the “DLS average size of micelles” value is reported as 6.78 nm. In data set [5], the “Relaxivity retained” value was 50% and the “y0 of fit y0+A×exp(−t/C1) of proton relaxation rate during transmetallation” value came to 0.50.

For `O=C([O-])CN(CCN(CCN(CC(=O)[O-])CC(=O)[O-])C[C@H]1O[C@@H](n2ccc(=O)[nH]c2=O)[C@H](O)[C@@H]1O)CC(=O)[O-].[Gd+3]` [LGd1], the “Relaxivity r1” value in data set [2] (20 MHz (0.47 T)) is 5.10 mM⁻¹ s⁻¹. Further, in data set [2] (60 MHz (1.41 T)), the “Relaxivity r1” value was determined as 4.17 mM⁻¹ s⁻¹. Besides, the “Relaxivity r1^a (with HSA)” value in data set [3] was determined as 5.62 mM⁻¹ s⁻¹. Further, in data set [6] (pH 3.5-11, 60 MHz (1.41 T)), the “Relaxivity over the given pH range” value is 5.0±0.1 mM^−1s^−1 and 5.0±0.6 mM^−1s^−1. The “Decrease of relaxivity at alkaline pH” value in data set [6] (pH 11, 60 MHz) is reported as “about 10%”. In addition, in data set [5], the “Relaxivity retained” value is 30% and the “y0 of fit y0+A×exp(−t/C1) of proton relaxation rate during transmetallation” value was determined as 0.30.
